Experimental data as given in US6664069B1, “Use of GABAB receptor agonists in the screening of compounds which are reflux inhibitors” (AstraZeneca AB, priority 1996, dated 2003).

Test system: transient lower esophageal sphincter relaxations (TLESR)
Experiment: Effect of GABAB receptor agonists on TLESR in dog after nutrient infusion and air insufflation
Format: in vivo
Settings: for TLESR % of control at 90 min / TLESR % of control at 45 min: mean ± SEM; for TLESR % of control at 45 min: first 45 min
Experimental: Adult Labrador retriever dogs of both sexes (5 males, 3 females) weighing 20-30 kg were used. A cervical esophagostomy was formed to allow intubation. After a recovery period, the dogs were used in control experiments until a stable and reliable control response had been achieved. The dogs were used in other experiments before they were given the GABAB receptor agonists, but they were always allowed a wash-out period of at least two days during which time no drugs were administered. Every fourth experiment on each dog was a control experiment to ensure stability and reproducibility of the results.
The experiments were started at about 8 a.m. at which time the animals had been fasting for approximately 17 hrs. The dog was placed in a Pavlov stand to which it had been accustomed previously. A thin silicone catheter with a distal opening was introduced retrogradely through the esophagostomy into the pharynx to record swallowing. The catheter was perfused with air at approximately 2 ml/min. A multilumen assembly was positioned so that pressures could be recorded in the proximal stomach, LES and at four sites in the distal esophagus. The assembly was fitted with a 6 cm long sleeve to measure LES pressure reliably. Gastric and LES channels were perfused with distilled degassed water at 0.45 ml/min and esophageal channels at 0.1 ml/min. A low-compliance pneumohydraulic pump was used to achieve optimal perfusion conditions. Intraluminal pressures were measured with external pressure transducers. The signals were amplified and acquired using LabWindows/CVI software (version 3.1). Pressure calibrations were done at 0 and 100 mm Hg with the multilumen assemblies placed at a level slightly below the pressure transducers. The dog was positioned so that the average intragastric (i.g.) pressure approximated 0 mm Hg. An antimony pH-electrode was positioned 3 cm orad to the upper margin of the LES, and the signals were acquired as described above. Analysis of acquired signals was made using LabWindows software.
Baseline measurement was done for at least 10 min, and then vehicle (0.9% NaCl; 0.5 ml/kg) or a GABAB receptor agonist was given i.v. over 2 min. Ten min after the completion of the administration, nutrient was infused i.g. via the multilumen assembly at a rate of 100 ml/min (30 ml/kg). GABA was given as a continuous i.v. infusion which commenced 10 min before nutrient administration; and R, S,-baclofen was in some cases given intragastrically 30 min before nutrient. The nutrient contained 10% peptone (w/v), 5% Intralipid (v/v) and 5% D-glucose (w/v) and was acidified to pH 3.0 with HCl. Immediately after the infusion, air was insufflated at 40 ml/min to make up a total time of 90 min starting from the commencement of nutrient infusion. The dog was then extubated and a baseline measurement was done to ensure that no drift had occurred.
A TLESR was identified by the following criteria; The difference between LES and i.g. pressures was less than 2 mm Hg, the duration was more than 0.5 s and the relaxation was not triggered by primary peristalsis (i.e. by a pharyngeal signal). The rate of pressure drop was more than 10 mm Hg/s. Most, but not all, TLESR could also be detected aurally by a characteristic noise at the esophagostomy (i.e. belching). The total number of TLESR was calculated for the first 45 min period and entire experiment (90 min). The effect of GABAB receptor agonists was expressed relative to individual control data (n≧5). Each agonist was tested in at least two different dogs.

[1] = 1.5 mg/kg intragastric admin. 30 min before nutrient
[2] = 1.8 mg/kg as intravenous infusion over 100 min
[3] = 5.4 mg/kg as intravenous infusion over 100 min

NCC(CC(=O)O)c1ccc(Cl)cc1 (racemic) [R, S-baclofen, 4-amino-3-(4-chlorophenyl)butanoic acid]
TLESR % of control at 90 min (0.3 mg/kg intravenously): 66 ± 8 % of control
TLESR % of control at 45 min (0.3 mg/kg intravenously): 47 ± 6 % of control
TLESR % of control at 90 min [1]: 54 ± 12 % of control
TLESR % of control at 45 min [1]: 12 ± 6 % of control
TLESR % of control at 90 min (1.5 mg/kg intravenously): 43 ± 19 % of control
TLESR % of control at 45 min (1.5 mg/kg intravenously): 11 ± 6 % of control
behavioural side effects (high R,S-baclofen dose, disappeared approximately one hour after the administration): some sedation

CP(=O)(O)C[C@@H](O)CN [(3-amino-2-(S)-hydroxypropyl)methylphosphinic acid]
TLESR % of control at 90 min (0.03 mg/kg intravenously): 65 ± 10 % of control
TLESR % of control at 45 min (0.03 mg/kg intravenously): 53 ± 7 % of control
TLESR % of control at 90 min (0.3 mg/kg intravenously): 38 ± 6 % of control
TLESR % of control at 45 min (0.3 mg/kg intravenously): 0 ± 0 % of control

CP(=O)(O)CCCN [(3-aminopropyl)methylphosphinic acid]
TLESR % of control at 90 min (0.003 mg/kg intravenously): 76 ± 5 % of control
TLESR % of control at 45 min (0.003 mg/kg intravenously): 57 ± 12 % of control
TLESR % of control at 90 min (0.01 mg/kg intravenously): 39 ± 7 % of control
TLESR % of control at 45 min (0.01 mg/kg intravenously): 32 ± 8 % of control
TLESR % of control at 90 min (0.03 mg/kg intravenously): 50 ± 17 % of control
TLESR % of control at 45 min (0.03 mg/kg intravenously): 25 ± 4 % of control
TLESR % of control at 90 min (0.1 mg/kg intravenously): 33 ± 9 % of control
TLESR % of control at 45 min (0.1 mg/kg intravenously): 5 ± 5 % of control

NCCCC(=O)O [GABA, 4-aminobutanoic acid]
TLESR % of control at 90 min [2]: 61 ± 3 % of control
TLESR % of control at 45 min [2]: 62 ± 2 % of control
TLESR % of control at 90 min [3]: 54 ± 10 % of control
TLESR % of control at 45 min [3]: 57 ± 6 % of control

NC[C@H](CC(=O)O)c1ccc(Cl)cc1 [R-baclofen]
TLESR % of control at 90 min (0.3 mg/kg intravenously): 40 ± 11 % of control
TLESR % of control at 45 min (0.3 mg/kg intravenously): 36 ± 10 % of control

NC[C@@H](CC(=O)O)c1ccc(Cl)cc1 [S-baclofen]
TLESR % of control at 90 min (1.5 mg/kg intravenously): 92 ± 10 % of control
TLESR % of control at 45 min (1.5 mg/kg intravenously): 76 ± 10 % of control
